These results are taken from patent publication US11931335B2, “Enhancing autophagy or increasing longevity by administration of urolithins or precursors thereof” (Amazentis SA, priority 2012, dated 2024).

In assay [1] the test system is sir-2.1(ok434) mutant C. elegans. Nature of the assay: Lifespan assay, sir-2.1 mutant C. elegans. Type of assay: in vivo. Here is the method:
(§1) Lifespan assays were performed with (A) wild-type (N2), (B) sir-2.1(ok434) mutant, (C) aak-2(ok524), (D) daf-16(mu86), (E) eat-2(ad465) and (F) daf-2(e1370) mutant strains of C. elegans maintained during their full life on plates supplemented with either 50 μM of urolithin A or with a control treatment and seeded with OP50 bacteria. Control plates without urolithin A contained an equivalent concentration of DMSO. Worm lifespan assays were performed at 20° C.
sir-2.1: sir-2.1 encodes the mammalian homolog of the NAD-dependent deacetylase SIRT1 in C. elegans. SIR-2.1/SIRT1 activity is mediated by NAD^+ level and is well described to be involved in longevity regulation in yeast, C. elegans, and Drosophila in response to caloric restriction.

In assay [2] the test system is daf-2(e1370) mutant C. elegans. Type of assay: in vivo. Here is the method:
as §1
daf-2 encodes for the insulin-like growth factor 1 (IGF-1) receptor in C. elegans.

A further assay has as its system ModeK cells. As to the kind of experiment: Autophagy western blot in ModeK cells. Type of assay: cell-based, mouse. The following applies: 10 μM, 20 μM and 50 NM, eight hours. Here is the method: The ability of urolithins to induce autophagy in mammalian cells was also examined. ModeK cells derived from intestine, were cultured in RPMI 1640 medium including 4.5 g/L glucose, 10% fetal calf serum, 1 mM Sodium Pyruvate, 10 mM HEPES, 0.1 mM NEAA, 2-Mercaptoethanol Penicillin 100 UI/mL and Streptomycin 100 μg/mL. Cells were cultured at 37° C. under a 5% CO2 atmosphere. Cells were treated with increasing concentrations of urolithin A (10 μM, 20 μM and […]). Treatment was performed for eight hours, after which cells were lysed and prepared for Western Blot analysis. Protein expression levels were examined for autophagy related proteins LC3-I and II (Cell Signaling antibody #4108), p62 (Cell Signalling antibody #5114), AMPKα (Cell Signaling antibody #2603), and p-AMPKα(Cell Signaling antibody #2531). The housekeeping protein, HSP90 (BD Transduction Laboratories antibody #610418) level was measured as a loading control.
Background: A western blot detects proteins with antibodies after separation by electrophoresis.

A further assay relates to liver of C57BL/6J mice. Nature of the assay: Autophagy in liver of mice after oral urolithin A. Type of assay: in vivo, mouse. The conditions noted are these: oral 55 mg/kg/d in chow, 8 weeks. Here is the method:
To determine the ability of urolithin A to induce autophagy in vivo, healthy 10-week-old C57BL/6J mice were treated with either a standard rodent diet or a diet containing urolithin A mixed with food to reach a dosing of 55 mg/kg/day delivered to the mice. Following 8 weeks of treatment with urolithin A, mice were sacrificed and the liver of each animal was surgically isolated. The isolated livers were then placed in lysis buffer and prepared for western blot analysis.
Protein expression levels were examined for autophagy related proteins LC3-I and LC3-II (Cell Signaling antibody #4108), p62 (Cell Signalling antibody #5114), AMPKα (Cell Signaling antibody #2603), and p-AMPKα(Cell Signaling antibody #2531). The housekeeping protein, HSP90 (BD Transduction Laboratories antibody #610418) level was measured as a loading control. Each lane in the Western blot represents a protein sample for the liver of a single mouse, to permit observation of the effects aver a number of treated animals.

The test system of assay [3] is aged C57BL/6J mice. As to the kind of experiment: Running wheel activity in aged high fat diet mice. Type of assay: in vivo, mouse. The following applies: 50 mg/kg/day, 30 weeks, dark phase of day 2, FIG. 21. Here is the method: To examine the effects of urolithin A treatment on motor activity in aged mammals 17-month-old C57BL/6J mice were treated with either a high fat rodent diet or a high fat rodent diet containing urolithin A mixed with food to reach a dosing of 50 mg/kg/day delivered to the mice.
Following 30 weeks of treatment with urolithin A, mice were housed individually and a 23 cm diameter running wheel was placed in the cage of each mouse. Spontaneous exercise activity was measured continuously over a two day period allowing the capture of the circadian rhythm of the exercise activity. Afterwards, mice were returned to their home cages.
Mice became habituated to the presence of the activity wheel on day 1. To measure the effect of urolithin A treatment on activity as well as muscle function, the cumulative distance that animals covered during the peak running period (dark phase) of day 2 was measured.

Assay [4] has as its system aged C57BL/6J mice. Nature of the assay: Grip test in aged mice. The following applies: high fat diet, 50 mg/kg/day, 26 weeks, FIG. 22. Type of assay: in vivo, mouse. The procedure: To examine the effects of urolithin A treatment on muscle function in aged mammals, 17-month-old C57BL/6J mice were treated with either a high fat rodent diet or a high fat rodent diet containing urolithin A mixed with food to reach a dosing of 50 mg/kg/day delivered to the mice.
Following 26 weeks of treatment with urolithin A, mice were assessed for their neuromuscular function by means of a grip test. Using the grip test, one can measure the forelimb grip strength of mice. Mice were placed on a grid to enable their fore paws grasp the support. To measure the grip strength, mice are pulled backward in the sensor axis until they are no longer able to hold the grid.

For `O=c1oc2cc(O)ccc2c2ccc(O)cc12` [Urolithin A, urolithin A], the “Median lifespan” value in assay [1] (sir-2.1(ok434), 50 μM UA) amounted to 23 days; in assay [2] (daf-2, 50 μM UA) it was 48 days. In addition, the “Lifespan extension compared to control (%)” value in assay [1] (sir-2.1(ok434), 50 μM UA vs 1% DMSO) was “+9.5%”; in assay [2] (daf-2, 50 μM UA vs 1% DMSO) it was “+14.2%”. Further, the “activity of urolithin A on the extension of median lifespan” value in assay [1] (sir-2.1 mutant) and in assay [2] (daf-2 mutant) was “completely suppressed” each time. In addition, in the assay on ModeK cells, the “levels of p62” value was “decreased”. In addition, the “ratio of LC3-II/LC3-I vs vehicle-treated cells” value with ModeK cells (FIG. 14) is reported as no more than 10 fold. In the assay on liver of C57BL/6J mice, the p62 protein levels entry is recorded as “decreased”. Besides, in the assay on liver of C57BL/6J mice (55 mg/kg/day), the “phosphorylated AMPKα / ratio of p-AMPKα/AMPKα” value is reported as “increased levels”. Also, the “ratio of LC3-II to LC3-I” value in the assay on liver of C57BL/6J mice (FIG. 19, 55 mg/kg/day) is recorded as “increased”. For the same compound, the “increase in autophagy over control untreated mice based on the ratio of LC3-II/LC3-I” value in the assay with liver of C57BL/6J mice (average) is listed as “approximately 400%”. The “increase in cumulative distance run” value in the assay on aged C57BL/6J mice [3] is recorded as 57%. For the same compound, the forelimb grip strength result with aged C57BL/6J mice [4] was “greater grip strength”.
